According to patent US20260001928A1 (CORTERIA PHARMACEUTICALS, priority 2022, published 2026):
pEC50: −log10 of the molar value. *1 amine or outer side, *2 acyl side, *3 side chain or, on linkers, in order; H or OH if unused. Where a SMILES comes first, the peptide text is derived from it. Side-chain parts run from the residue outwards. [ ]: non-standard residue; d: D form. The star is where a group is joined. C20 diacid = O=C(O)CCCCCCCCCCCCCCCCCCC(=O)*; C18 diacid = O=C(O)CCCCCCCCCCCCCCCCC(=O)*; γGlu = O=C(O)[C@H](CCC(=O)[*:2])N[*:1]; NMeI = CC[C@H](C)[C@H](NC)C(=O)O; Aib = CC(C)(N)C(=O)O

Key:
[1] = molecular target: T1, rat CRF2 a (Rattus norvegicus, UniProt P47866); assay: Activity at rat CRF2 a, cAMP assay in A7R5 rat aortic smooth muscle cells; assay type: cell-based; details: 0% HSA, 100% = Sauvagine at 100 nM
T1 construct: host or cells: A7R5 rat aortic smooth muscle cells
Procedure: The A7R5 rat aortic smooth muscle cell line used in this study was purchased from ATCC.
Cells were grown in a 10 cm dish at 37° C./5% CO2 in medium (DMEM/10% FBS) to near confluence. At that stage, cells were harvested, resuspended to 10 million/mL in culture medium and with 5% DMSO. 1 mL vial aliquots were slowly frozen to −80° C. in isopropanol and then transferred in liquid nitrogen for storage.
These vials were used to run the experiment following the procedure reported in the previous paragraph, except for the compound used in the control well to define the 100% activation (Sauvagine at 100 nM) and the cell density (final cell density: 5000 cells/well).

[2] = molecular target: T2, human CRF2a receptor (Homo sapiens, UniProt Q13324); assay: Activity at human CRF2a receptor, cAMP functional assay in TeloHEAC cells; assay type: cell-based; details: TeloHEAC cells stably expressing human CRF2a receptor, relative to urocortin 2 (100 nM = 100%)
T2 construct: expressed in transfected cells; host or cells: TeloHEAC cells
T2 sequence (Q13324 1-411): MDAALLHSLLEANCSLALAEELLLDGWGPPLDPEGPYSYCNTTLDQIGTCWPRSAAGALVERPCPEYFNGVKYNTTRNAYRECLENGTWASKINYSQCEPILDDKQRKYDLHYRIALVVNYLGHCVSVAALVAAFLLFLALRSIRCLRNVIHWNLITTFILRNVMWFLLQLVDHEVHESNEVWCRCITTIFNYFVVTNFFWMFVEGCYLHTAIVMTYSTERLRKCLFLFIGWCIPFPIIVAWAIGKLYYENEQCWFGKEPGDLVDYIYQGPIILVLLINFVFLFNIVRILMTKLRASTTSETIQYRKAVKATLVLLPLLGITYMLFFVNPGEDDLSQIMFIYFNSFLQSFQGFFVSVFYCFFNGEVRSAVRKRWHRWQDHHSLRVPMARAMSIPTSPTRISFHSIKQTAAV
In short: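 TeloHEAC cells stably expressing human CRF2a (10000 cells/well, suspended in HBSS/20 mM HEPES with 2 mM IBMX) were exposed to compounds for 30 min at 37 °C. cAMP was read as the 665/620 nm fluorescence ratio after 1 h at room temperature. EC50 was derived relative to 100 nM urocortin 2, set as 100%.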

[3] = Chemical stability in buffer (pH 7.4 / pH 4.5), % purity loss; assay type: physicochemical; details: 100 mM phosphate buffer pH 7.4; 40° C. vs 5° C.; 14 or 28 days
In short: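 Compounds dissolved at 10 mg/mL target in 100 mM phosphate (pH 7.4) or 100 mM acetate (pH 4.5) buffer for 1 h at room temperature, then centrifuged. Diluted supernatant stored at 5 °C or 40 °C for 14 or 28 days; % purity loss by LC-UV.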

[4] = molecular target: T3, CFR1R receptor (Homo sapiens, UniProt P34998); assay: Activity at anti-target CFR1R receptor, cAMP assay in CRF1R-overexpression CHO-K1 cells; assay type: cell-based; details: 100% = Sauvagine at 100 nM; for pEC50: cAMP
T3 construct: host or cells: CHO-K1 (clone 2)
T3 sequence (P34998 24-415): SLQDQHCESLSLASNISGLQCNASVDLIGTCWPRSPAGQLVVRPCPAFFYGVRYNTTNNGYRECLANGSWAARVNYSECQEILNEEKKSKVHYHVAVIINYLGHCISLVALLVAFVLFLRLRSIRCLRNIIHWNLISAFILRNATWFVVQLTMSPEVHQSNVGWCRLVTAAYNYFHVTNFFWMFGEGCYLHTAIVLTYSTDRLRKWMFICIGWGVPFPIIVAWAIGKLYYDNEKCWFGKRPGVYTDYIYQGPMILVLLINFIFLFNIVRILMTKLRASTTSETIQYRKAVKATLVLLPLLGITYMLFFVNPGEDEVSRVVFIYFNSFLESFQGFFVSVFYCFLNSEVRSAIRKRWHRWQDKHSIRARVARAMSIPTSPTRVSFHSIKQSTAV
In short: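 Clone 2 cells were cultured in F12 (Hams)/10% FBS/400 μg/ml G418 at 37° C./5% CO2, frozen in medium with 10% DMSO, and thawed vials used. The protocol followed the TeloHAEC procedure, with 4000 cells/well final and Sauvagine at 100 nM defining 100% activation.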

[5] = In vitro subcutaneous tissue supernatant (SCts) stability and metabolite identification, rat; assay type: in vitro ADME; design: remaining at 2 h: dose or concentration left out as unconfirmed; details: male, Sprague Dawley; rat subcutaneous tissue supernatant (SCts), 37° C, 2 h
[6] = Pharmacokinetics in male Sprague Dawley rats after subcutaneous administration; assay type: in vivo; details: plasma, rat, IV
[7] = as above; assay type: in vivo; details: plasma, rat, SC, 0.05 mg/kg
[8] = system: Sprague Dawley rats; assay: Effect on systolic blood pressure, telemetry in Sprague Dawley rats; assay type: in vivo, rat; details: 0.1 mg/kg SC
In short: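 Sprague Dawley rats with abdominal-aorta telemetry catheters, recovered ≥10 days, received 0.1 mg/kg SC of compound or vehicle. Systolic pressure recorded 1 h pre-dose as baseline, then continuously up to 48 hours, expressed as % change from baseline; duration of action is last time point with a BP effect (n=2).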

T1 sequence (P47866 27-431 isoform P47866-2 limits assumed): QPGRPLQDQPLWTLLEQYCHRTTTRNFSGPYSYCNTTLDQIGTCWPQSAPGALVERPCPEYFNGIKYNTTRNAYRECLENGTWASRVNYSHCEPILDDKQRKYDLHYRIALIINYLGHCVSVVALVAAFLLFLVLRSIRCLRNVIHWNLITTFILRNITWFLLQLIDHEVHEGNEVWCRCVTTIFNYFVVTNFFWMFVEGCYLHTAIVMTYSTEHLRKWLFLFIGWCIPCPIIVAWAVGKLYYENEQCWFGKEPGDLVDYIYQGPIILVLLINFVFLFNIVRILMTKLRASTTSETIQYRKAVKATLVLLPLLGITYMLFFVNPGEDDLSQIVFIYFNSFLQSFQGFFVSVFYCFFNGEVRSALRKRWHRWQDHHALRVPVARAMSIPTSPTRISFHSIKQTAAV

Row | Structure (SMILES) | pEC50 [1] | pEC50 [2] | Buffer stability pH 7.4 % purity loss [3] | Emax (% I) [4] | pEC50 [4] | remaining at 2 h [5] | AUC(0-t) ([6]; 0.05 mg/kg) | half-life ([6]; 0.05 mg/kg) | AUC(0-t) [7] | Cmax [7] | Tmax [7] | half-life [7] | AUC(0-t) ([6]; 0.025 mg/kg) | half-life ([6]; 0.025 mg/kg) | Systolic blood pressure (Mean) % change from baseline, 8 h ([8]; 8 h, n=2) | Systolic blood pressure (Mean) % change from baseline, 12 h ([8]; 12 h, n=2) | Systolic blood pressure (Mean) % change from baseline, 24 h ([8]; 24 h, n=2) | Duration of action ([8]; last time point with an effect on BP still observed)
1 | CC[C@H](C)[C@H](NC)C(=O)N[C@H](C(=O)N[C@@H](CC(C)C)C(=O)N[C@@H](CO)C(=O)N[C@@H](CC(C)C)C(=O)N[C@@H](CC(=O)O)C(=O)N[C@@H](C(=O)N1CCC[C@H]1C(=O)N[C@H](C(=O)N[C@@H](CCCCN)C(=O)N[C@@H](CC(C)C)C(=O)N[C@@H](CCCCNC(=O)CC[C@H](NC(=O)CC[C@H](NC(=O)CCCCCCCCCCCCCCCCCCC(=O)O)C(=O)O)C(=O)O)C(=O)N[C@@H](CCCCN)C(=O)N[C@H](C(=O)N[C@@H](CC(C)C)C(=O)N[C@@H](CC(C)C)C(=O)N[C@@H](CCC(=O)O)C(=O)N[C@@H](CCC(N)=O)C(=O)N[C@@H](CCC(=O)O)C(=O)N[C@@H](CCCCN)C(=O)N[C@@H](CCC(N)=O)C(=O)N[C@@H](CCCCN)C(=O)N[C@@H](CCC(=O)O)C(=O)N[C@@H](CCC(N)=O)C(=O)N[C@@H](CCCNC(=N)N)C(=O)N[C@@H](CCC(=O)O)C(=O)N[C@@H](CCC(N)=O)C(=O)N[C@@H](C)C(=O)N[C@@H](CCC(=O)O)C(=O)N[C@H](C(=O)N[C@@H](CC(N)=O)C(=O)NC(C)(C)C(=O)N[C@@H](CCC(N)=O)C(=O)N[C@H](C(=O)N[C@@H](CC(C)C)C(=O)N[C@@H](C)C(=O)N[C@@H](CCC(N)=O)C(=O)N[C@H](C(N)=O)C(C)C)[C@@H](C)CC)[C@@H](C)O)[C@@H](C)CC)[C@@H](C)CC)C(C)C)C(C)C [compound 242] (H-[NMeI]VLSLD[dV]PIKLK([γGlu-γGlu-C20 diacid])KILLEQEKQKEQREQAETN[Aib]QILAQV-NH2) | 9.40 | 9.66 | 0.0/Not Tested % | 6 % I | < 6.60 | 68% | 7970 ng·h/mL | 14 h | – | – | – | – | – | – | – | – | – | –
2 | CC[C@H](C)[C@H](NC)C(=O)N[C@H](C(=O)N[C@@H](CC(C)C)C(=O)N[C@@H](CO)C(=O)N[C@@H](CC(C)C)C(=O)N[C@@H](CC(=O)O)C(=O)N[C@@H](C(=O)N1CCC[C@H]1C(=O)N[C@H](C(=O)N[C@@H](CCCCN)C(=O)N[C@@H](CC(C)C)C(=O)N[C@@H](CCCCNC(=O)CC[C@H](NC(=O)CCCCCCCCCCCCCCCCCCC(=O)O)C(=O)O)C(=O)N[C@@H](CCCCN)C(=O)N[C@H](C(=O)N[C@@H](CC(C)C)C(=O)N[C@@H](CC(C)C)C(=O)N[C@@H](CCC(=O)O)C(=O)N[C@@H](CCC(N)=O)C(=O)N[C@@H](CCC(=O)O)C(=O)N[C@@H](CCCCN)C(=O)N[C@@H](CCC(N)=O)C(=O)N[C@@H](CCCCN)C(=O)N[C@@H](C)C(=O)N[C@@H](CCC(N)=O)C(=O)N[C@@H](CCCNC(=N)N)C(=O)N[C@@H](CCC(=O)O)C(=O)N[C@@H](CCC(N)=O)C(=O)N[C@@H](C)C(=O)N[C@@H](CCC(=O)O)C(=O)N[C@H](C(=O)N[C@@H](CC(N)=O)C(=O)NC(C)(C)C(=O)N[C@@H](CCC(N)=O)C(=O)N[C@H](C(=O)N[C@@H](CC(C)C)C(=O)N[C@@H](C)C(=O)N[C@@H](CCC(N)=O)C(=O)N[C@H](C(N)=O)C(C)C)[C@@H](C)CC)[C@@H](C)O)[C@@H](C)CC)[C@@H](C)CC)C(C)C)C(C)C [compound 217] (H-[NMeI]VLSLD[dV]PIKLK([γGlu-C20 diacid])KILLEQEKQKAQREQAETN[Aib]QILAQV-NH2) | 10.22 | 10.05 | 1.8/Not Tested % | 33 % I | < 6.60 | 76% | – | – | 4040 ng·h/mL | 138 ng/mL | 8 h | 12 h | 4120 ng·h/mL | 8 h | – | – | – | –
3 | CC[C@H](C)[C@H](NC)C(=O)N[C@H](C(=O)N[C@@H](CC(C)C)C(=O)N[C@@H](CO)C(=O)N[C@@H](CC(C)C)C(=O)N[C@@H](CC(=O)O)C(=O)N[C@@H](C(=O)N1CCC[C@H]1C(=O)N[C@H](C(=O)N[C@@H](CCCCN)C(=O)N[C@@H](CC(C)C)C(=O)N[C@@H](CCCCNC(=O)CC[C@H](NC(=O)CCCCCCCCCCCCCCCCC(=O)O)C(=O)O)C(=O)N[C@@H](CCCCN)C(=O)N[C@H](C(=O)N[C@@H](CC(C)C)C(=O)N[C@@H](CC(C)C)C(=O)N[C@@H](CCC(=O)O)C(=O)N[C@@H](CCC(N)=O)C(=O)N[C@@H](CCC(=O)O)C(=O)N[C@@H](CCCCN)C(=O)N[C@@H](CCC(N)=O)C(=O)N[C@@H](CCCCN)C(=O)N[C@@H](C)C(=O)N[C@@H](CCC(N)=O)C(=O)N[C@@H](CCCNC(=N)N)C(=O)N[C@@H](CCC(=O)O)C(=O)N[C@@H](CCC(N)=O)C(=O)N[C@@H](C)C(=O)N[C@@H](CCC(=O)O)C(=O)N[C@H](C(=O)N[C@@H](CC(N)=O)C(=O)NC(C)(C)C(=O)N[C@@H](CCC(N)=O)C(=O)N[C@H](C(=O)N[C@@H](CC(C)C)C(=O)N[C@@H](C)C(=O)N[C@@H](CCC(N)=O)C(=O)N[C@H](C(N)=O)C(C)C)[C@@H](C)CC)[C@@H](C)O)[C@@H](C)CC)[C@@H](C)CC)C(C)C)C(C)C [compound 144] (H-[NMeI]VLSLD[dV]PIKLK([γGlu-C18 diacid])KILLEQEKQKAQREQAETN[Aib]QILAQV-NH2) | 10.22 | – | 0.0/Not Tested % | – | – | 74% | – | – | 1710 ng·h/mL | 105 ng/mL | 6 h | 12.6 h | – | – | −22% | −17% | 1% | 23 h
